Assay type in all cases: in vivo, human
The test system of assay [1] is adult patients with MDD. The assay is described as follows: TAK-315 Trial: change from baseline in MADRS total score, 8 weeks of treatment. The protocol:
(§1) Multicenter, randomized, double-blind, parallel-group, placebo-controlled, drug-referenced, fixed-dose studies were conducted to evaluate the efficacy and safety of vortioxetine in the acute treatment of adult patients with MDD. A total of 595 individuals meeting the diagnostic criteria from the DSM-IV-TR for recurrent MDD were included in the studies, TAK-315, -316 and -317. The current major depressive disorder for each individual was confirmed by the Structured Clinical Interview for DSM Disorders (SCID). […] Individuals were treated with 10, 15 or 20 mg vortioxetine, or a different drug, or administered a placebo daily for 8 weeks.
(§2) Subjects were seen weekly during the first 2 weeks of treatment and then every 2 weeks up to the end of the 8-week treatment period. The primary outcome measure was change from baseline in MADRS total score after 8 Weeks of treatment. MADRS is a depression rating scale consisting of 10 items, each rated 0 (no symptom) to 6 (severe symptom). The 10 items represent the core symptoms of depressive illness. The rating is based on a clinical interview with the patient, moving from broadly phrased questions about symptoms to more detailed ones, which allow a precise rating of severity, covering the most recent 7 days. Total score is from 0 to 60, with a higher the score being the more severe. […]

In assay [2] the test system is adult patients with MDD. Briefly: TAK-316 Trial: change from baseline in MADRS total score, 8 weeks of treatment. The protocol:
as §1, §2

The subject of assay [3] is adult patients with MDD. Briefly: Combined TAK-315 and TAK-316 Trials: predicted MADRS response rate by 24-SNP placebo subgroup. The protocol: as §1
Secondary outcome measures included the proportion of responders at week 8 (responders defined as a 50% decrease in MADRS total score from baseline); a change from baseline in MADRS total score at week 8; and a change in clinical status using CGI-I score at week 8. The CGI-I scale is a 7-point scale rated from 1 (very much improved) to 7 (very much worse). The investigator rated the patient's overall improvement relative to baseline, whether or not, in the opinion of the investigator, this was entirely due to the treatment.
A main effect model was utilized to identify genes or single variants prognostic of response using the placebo samples.
In the placebo arm, the mean response rate in the subgroup [N=125; BM(+)] was 47.33% (CL: 0.38-0.57) and not in the subgroup [N=94; BM(−)] was 15.52% (CL: 0.1-0.25). The subgroup size in the placebo arm was 57.1% [BM(+)] and 42.9% [BM(−)]. […] The placebo subgroup size in the Vortioxetine 20 mg treat arm was 45.9(%) [BM(+), N=89] and 54.1% [BM(−), N=105].
FIG. 8 provides a comparison of the 24 SNP placebo model in the three trials' (TAK-315, 316 & 317) placebo arms and the 20 mg vortioxetine dose in TAK-315 and -316. […] In the placebo arm the mean response rate in the subgroup [N=187; BM(+)] was 46.63% (CL: 0.39-0.55) and not in the subgroup [N=148; BM(−)] was 17.02% (CL: 0.12-0.24). The subgroup size in the placebo arm was 55.8% [BM(+)] and 44.2% [BM(−)]. […] The subgroup size in the Vortioxetine 20 mg treat arm was 45.9% [BM(+), N=89] and 54.1% [BM(−), N=105].

Where [4] appears, read: 20 mg vortioxetine daily, 8 weeks.

SMILES strings stand for the structures.

Regarding `Cc1ccc(Sc2ccccc2N2CCNCC2)c(C)c1` [vortioxetine], the “LS mean (SE) change from baseline in MADRS score” value in the assay on adult patients with MDD [1] (setting [4]) was −15.56 (1.67); in the assay with adult patients with MDD [2] (setting [4]) it was −13.87 (1.63). The “LS mean difference in MADRS change, active vs. placebo BM(+)” value is 0.12 in the assay on adult patients with MDD [1] (20 mg vortioxetine vs 24-SNP Placebo BM(+) subgroup, SE 2.11) and 0.12 in the assay on adult patients with MDD [2] (20 mg vortioxetine vs 24-SNP Placebo BM(+) subgroup, SE 2.14). Besides, the “mean response rate (MADRS, LSmean predicted response rate)” value is listed as 36.00% with adult patients with MDD [3] (Vortioxetine 20 mg arm (TAK-315 and -316), placebo BM(+) subgroup N=89, analysis with TAK-315/316/317 placebo arms (FIG. 8)); 44.0% in the assay on adult patients with MDD [3] (Vortioxetine 20 mg arm (TAK-315 and -316), placebo BM(−) subgroup N=105, analysis with TAK-315/316/317 placebo arms (FIG. 8)); 35.96% in the assay with adult patients with MDD [3] (Vortioxetine 20 mg arm, placebo BM(+) subgroup N=89, TAK-315/316 analysis (FIG. 6)); 43.0% in the assay on adult patients with MDD [3] (Vortioxetine 20 mg arm, placebo BM(−) subgroup N=105, TAK-315/316 analysis (FIG. 6)).

The values above are taken from US20190078161A1, “METHOD FOR IDENTIFYING CLINICAL TRIAL RESPONDERS FROM A PLACEBO GROUP IN MAJOR DEPRESSION” (Tekada Pharmaceutical Company Limited, priority 2016, published 2019).
